The text below walks through data of patent US20230219951A1, “PYRIDINE-PYRIMIDINE DERIVATIVE, PREPARATION METHOD THEREFOR AND PHARMACEUTICAL USE THEREOF” (Jiangsu Hengrui Pharmaceuticals Co., Ltd., priority 2020, published 2023).

By IC50 is commonly meant the point on the concentration scale where inhibition reaches its midpoint.

Assay [1] has as its target T1, interaction between the KRAS protein subtype G12D and the SOS1 protein (Homo sapiens, UniProt Q07889).
T1 construct: GST-TEV-SOS1(564-1049) (Viva Biotech, SOS1-191010); purchased SOS1: Viva Biotech; KRAS: Shanghai Panchao Biotechnology Co., Ltd. SOS1-191010
T1 sequence (Q07889 564-1049): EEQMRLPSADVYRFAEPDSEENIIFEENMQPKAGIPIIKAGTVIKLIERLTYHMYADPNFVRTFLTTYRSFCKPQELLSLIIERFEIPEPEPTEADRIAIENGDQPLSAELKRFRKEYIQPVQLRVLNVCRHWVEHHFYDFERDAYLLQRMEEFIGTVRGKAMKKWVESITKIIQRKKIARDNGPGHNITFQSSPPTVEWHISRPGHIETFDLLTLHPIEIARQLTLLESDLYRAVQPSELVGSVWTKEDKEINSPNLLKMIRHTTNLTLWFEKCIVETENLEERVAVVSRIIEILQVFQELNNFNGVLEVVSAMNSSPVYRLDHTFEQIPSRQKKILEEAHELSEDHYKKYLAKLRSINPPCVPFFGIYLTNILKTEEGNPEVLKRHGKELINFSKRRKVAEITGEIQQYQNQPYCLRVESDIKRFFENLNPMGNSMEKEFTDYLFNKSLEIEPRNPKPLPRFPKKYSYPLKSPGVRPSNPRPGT
In words: Inhibition of the interaction between KRAS G12D and SOS1 protein (AlphaLISA/AlphaScreen). It is filed as binding. The settings on record: KRAS G12D + GST-TEV-SOS1(564-1049) + GDP. As to the method:
(§1) Test Example 1: Inhibitory Ability of Compounds of the Present Disclosure to the Interaction Between the KRAS Protein Subtype G12D or G12V and the SOS1 Protein. The inhibitory ability of the compounds of the present disclosure to the interaction between the KRAS protein subtype G12D or G12V and the SOS1 protein was determined by the following method. The experimental method was briefly described as follows:
(§2) 1. The experimental buffer was prepared prior to the start of the experiment: 1×PBS+0.1% BSA+0.05% tween 20.
(§3) 2. KRAS G12D and KRAS-G12V proteins were labeled with biotin using the biotin labeling kit.
(§4) 1. Firstly, the biotin-labeled KRAS G12D or KRAS G12V protein was mixed and incubated with the SOS1 protein and GDP for later use.
(§5) 2. AlphaLISA glutathione acceptor beads and AlphaScreen streptavidin donor beads were mixed at a ratio of 1:1 to make the concentration of 40 μg/mL for later use.
(§6) 3. The compound was formulated with the experimental buffer to obtain 10 concentration points by 5-fold gradient dilution from an initial concentration of 40 μM.
(§7) 4. In the 384-well microplate, 10 μL of a mixture of KRAS G12D or KRAS G12V protein and SOS1 and GDP and 5 μL of the diluted compound were added to each well and incubated at room temperature for 30 min away from the light.
(§8) 5. Then, 5 μL of a mixture of AlphaLISA glutathione acceptor beads and AlphaScreen streptavidin donor beads was added to each well and incubated at room temperature for 60 min away from the light.
(§9) 6. The fluorescence values were read on a multi-mode microplate reader.
(§10) 7. IC50 values of the compounds were calculated using Graphpad Prism.

Assay [2] concerns the target T2, interaction between the KRAS protein subtype G12V and the SOS1 protein (Homo sapiens, UniProt Q07889).
T2 construct: GST-TEV-SOS1(564-1049) (Viva Biotech, SOS1-191010); purchased SOS1: Viva Biotech; KRAS: Shanghai Panchao Biotechnology Co., Ltd. SOS1-191010
T2 sequence (Q07889 564-1049): T1 sequence (Q07889 564-1049)
In words: Inhibition of the interaction between KRAS G12V and SOS1 protein (AlphaLISA/AlphaScreen). The format is binding. The settings on record: KRAS G12V + GST-TEV-SOS1(564-1049) + GDP. As to the method: as §1, §2, §3, §4, §5, §6, §7, §8, §9, §10
A general note: Bead proximity is the source of the signal in Alpha formats.

The subject of assay [3] is ERK phosphorylation of H358 cells. Put plainly: Inhibition of ERK phosphorylation of H358 cells (HTRF pERK/total ERK). The format is cell-based. The settings on record: Homo sapiens, NCI-H358, 1 h incubation, pERK/total ERK ratio. As to the method: This experiment is intended to evaluate the inhibition effect of the compounds of the present disclosure on the KRAS target (containing the G12C mutation) according to IC50 by determining the inhibition effect of the compounds on ERK phosphorylation of the cells.
H358 cells (ATCC, CRL-5807) were cultured in RPMI1640 (Hyclone, SH30809.01) complete medium containing 10% fetal bovine serum. On the first day of the experiment, the H358 cells were seeded into a 96-well plate at a density of 25,000 cells/well with a complete medium to form 190 μL of cell suspension per well. The plate was incubated overnight in a cell incubator at 37° C. with 5% CO2. The next day, 10 μL of test compound diluted in a gradient prepared with the complete medium was added to each well. The final concentrations of the compound were 9 concentration points obtained by 5-fold gradient dilution from 10 μM. A blank control containing 0.1% DMSO was set. The plate was incubated in a cell incubator at 37° C. with 5% CO2 for 1 h. 1 h later, the 96-well cell culture plate was taken out, the medium was removed by pipetting, 200 μL PBS (Shanghai BasalMedia Technologies Co., Ltd., B320) was added to each well, and the cells were washed once. PBS was removed by pipetting, 50 μL of lysis buffer (Cisbio, 64KL1FDF) containing a blocking reagent (Cisbio, 64KB1AAC) was added to each well, and the plate was shaken on a shaker at room temperature for 40 min for lysis. After lysis, the lysate was pipetted and mixed well, 16 μL of lysate was transferred from each well to each of two HTRF 96-well assay plates (Cisbio, 66PL96100), and then 4 μL of premixed phospho-ERK1/2 antibody solution (Cisbio, 64AERPEG) or 4 μL of premixed total-ERK1/2 antibody solution (Cisbio, 64NRKPEG) was added to each of the two plates. The microplate was sealed with a sealing membrane, centrifuged for 1 min in a microplate centrifuge, and incubated overnight at room temperature away from the light. On the third day, the fluorescence values at an excitation wavelength of 337 nm and at emission wavelengths of 665 nm and 620 nm were read using a PHERAstar multi-mode microplate reader (BMG Labtech, S/N 471-0361).
IC50 values for inhibitory activity of the compounds were calculated using Graphpad Prism software based on compound concentrations and pERK/total ERK ratio.
A general note: Time-resolved FRET reads energy transfer from a long-lived donor to a nearby acceptor.

The subject of a further assay is H358 cells. In words: Inhibition of proliferation of H358 cells (CellTiter-Glo 3D). The conditions noted are these: Homo sapiens, NCI-H358, low adsorption plate, 120 h. The format is cell-based. As to the method: This example is intended to evaluate the inhibition effect of the compounds of the present disclosure on the KRAS target (containing the G12C mutation) by testing the inhibition effect of the compounds of the present disclosure on the proliferation of H358 cells.
H358 cells (ATCC, CRL-5807) were cultured in a complete medium, namely RPMI1640 medium (Hyclone, SH30809.01) containing 10% fetal bovine serum (Corning, 35-076-CV). On the first day of the experiment, the H358 cells were seeded into a 96-well low adsorption plate (Coming, CLS7007-24EA) at a density of 1500 cells/well with a complete medium to form 90 μL of cell suspension per well. The plate was centrifuged at 2000 rpm for 5 min at room temperature and then incubated overnight in a cell incubator at 37° C. with 5% CO2. The next day, 10 μL of test compound diluted in a gradient prepared with the complete medium was added to each well. The final concentrations of the compound were 9 concentration points obtained by 5-fold gradient dilution from 10 μM. A blank control containing 0.1% DMSO was set. The plate was incubated in a cell incubator at 37° C. with 5% CO2 for 120 h. On the seventh day, the 96-well cell culture plate was taken out and 50 μL of CellTiter-Glo® 3D reagent (Promega, G9682) was added into each well. The plate was shaken at room temperature for 25 min, pipetted and mixed well, from which 50 μL of the mixture was transferred into a white impermeable 96-well plate (PE, 6005290). The luminescence signal values were read using a multi-mode microplate reader (PerkinElmer, VICTOR 3).
IC50 values for the inhibitory activity of the compounds were calculated using Graphpad Prism software.
Background: ATP-based viability assays read luminescence as a measure of living cells.

Turning to `COCC(=O)N1CCC(c2cc3c(N[C@H](C)c4cccc(C(F)F)c4F)nc(C)nc3[nH]c2=O)CC1` [Example 20, (R)-4-((1-(3-(difluoromethyl)-2-fluorophenyl)ethyl)amino)-6-(1-(2-methoxyacetyl)piperidin-4-yl)-2-methylpyrido[2,3-d]pyrimidin-7(8H)-one], the IC50 in assay [1] was 19 nM; in assay [2], 60 nM; in assay [3], 78 nM; in the assay on H358 cells, 118 nM.
The corresponding values for `Cc1nc(N[C@H](C)c2cccc(C(F)F)c2F)c2cc([C@]3(O)CC[C@@H](O)CC3)c(=O)n(C)c2n1` [Example 28-p1, 4-(((R)-1-(3-(difluoromethyl)-2-fluorophenyl)ethyl)amino)-6-((1s,4S)-1,4-dihydroxycyclohexyl)-2,8-dimethylpyrido[2,3-d]pyrimidin-7(8H)-one] are 100 nM, 97 nM, 231 nM and 243 nM.
The corresponding values for `CC(=O)N1CC=C(c2cc3c(N[C@H](C)c4cc(N)cc(C(F)(F)F)c4)nc(C)nc3[nH]c2=O)CC1` [Example 4, (R)-6-(1-acetyl-1,2,3,6-tetrahydropyridin-4-yl)-4-((1-(3-amino-5-(trifluoromethyl)phenyl)ethyl)amino)-2-methylpyrido[2,3-d]pyrimidin-7(8H)-one] are 17 nM, 67 nM, 41 nM and 97 nM.
